# Key:
# Test in all cases: relative viability (nuclei count vs DMSO), 5 days (fraction); higher = more cells survive
# [1] = compound: CC1=CC(=C(N1C2=CC=C(C=C2)Cl)C)C(=O)CN3CCCCC3 [IU1-47] + CC(=O)Nc1cccc(-n2c(=O)n(C3CC3)c(=O)c3c(Nc4ccc(I)cc4F)n(C)c(=O)c(C)c32)c1 [Trametinib] (partner 0.02 µM)
# Method in brief: (§1)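 Lung cancer cell lines were pin-tool dosed in 1536-well plates on the day after seeding, with either a lone drug or a fixed anchor-drug dose plus five library-drug doses (not always all listed) in √10 steps. Nuclei were counted on 4× images after 5 days. Relative viability is the ratio of treated-well to vehicle-well nuclei counts, with each value a median of duplicate plates.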
# [2] = compound: CC1=CC(=C(N1C2=CC=C(C=C2)Cl)C)C(=O)CN3CCCCC3 [IU1-47] + Cc1nc(Nc2ncc(C(=O)Nc3c(C)cccc3Cl)s2)cc(N2CCN(CCO)CC2)n1 [Dasatinib] (partner 0.075 µM)
# Method in brief: as §1
# [3] = compound: Cc1nc(C(=O)NCC(=O)O)c(O)c2ccc(Oc3ccccc3)cc12 [FG-4592] + COc1cccc2cc(-c3nc([C@H]4CC[C@H](C(=O)O)CC4)n4ncnc(N)c34)[nH]c12 [OSI-027] (partner 0.5 µM)
# Method in brief: as §1
# [4] = compound: Cc1nc(C(=O)NCC(=O)O)c(O)c2ccc(Oc3ccccc3)cc12 [FG-4592] + CS(=O)(=O)N1CCN(Cc2cc3nc(-c4cccc5[nH]ncc45)nc(N4CCOCC4)c3s2)CC1 [Pictilisib] (partner 1 µM)
# Method in brief: as §1
cell line,measurement,setting,value
UMC-11,relative viability,[1]; first compound 0.08 µM,0.681
same,relative viability,[1]; first compound 0.253 µM,0.681
same,relative viability,[1]; first compound 0.8 µM,0.748
same,relative viability,[1]; first compound 2.53 µM,0.741
same,relative viability,[1]; first compound 8 µM,0.664
same,relative viability,[2]; first compound 0.08 µM,0.429
same,relative viability,[2]; first compound 0.253 µM,0.423
same,relative viability,[2]; first compound 0.8 µM,0.572
same,relative viability,[2]; first compound 2.53 µM,0.388
same,relative viability,[2]; first compound 8 µM,0.341
same,relative viability,[3]; first compound 0.08 µM,0.466
same,relative viability,[3]; first compound 0.253 µM,0.529
same,relative viability,[3]; first compound 0.8 µM,0.498
same,relative viability,[3]; first compound 2.53 µM,0.461
same,relative viability,[3]; first compound 8 µM,0.441
same,relative viability,[4]; first compound 0.08 µM,0.722
same,relative viability,[4]; first compound 0.253 µM,0.714
same,relative viability,[4]; first compound 0.8 µM,0.599
same,relative viability,[4]; first compound 2.53 µM,0.74
same,relative viability,[4]; first compound 8 µM,0.7

# Source: the supplement of paper PMC10307832
